Test results as given in patent publication US11215608B2, “Methods of determining cellular chemosensitivity” (Dana-Farber Cancer Institute, Inc., priority 2006, dated 2022).

Tests used:
[1] = tested on: SU-DHL8; test: BH3 profiling, cytochrome c release from lymphoma mitochondria; type: biochemical; details: SU-DHL-8
Description: (§1) BH3 profiling allows for the prediction of response of cancer cells to anti-cancer therapeutics. For the purposes of this application, therapeutics can be divided into those that target anti-apoptotic BCL-2 proteins, and conventional agents. As a model test system, four lymphoma cell lines SU-DHL4, SU-DHL6, SU-DHL8, and SU-DHL 10 were employed. To perform BH3 profiling, the ability of a panel of sensitizer peptides to induce mitochondrial outer membrane permeabilization (MOMP) in mitochondria isolated from the lymphoma cells were tested. […] MOMP was measured by quantifying cytochrome c release by ELISA.

[2] = tested on: mitochondria from FL5.12 cells; test: Cytochrome c release from FL5.12 mitochondria; type: biochemical, murine
Protocol: (§2) Mitochondria were purified from liver and FL5.12cells as previously described (Letai et al., 2002). Mitochondria were purified from leukemia cells and 2B4 cells as previously described for FL5.12 cells. Mitochondria were incubated with treatments for 45 (mouse liver mitochondria) or 35 minutes (FL5.12, 2B4, and leukemic mitochondria). Release of cytochrome c was determined by a comparison of cytochrome c in the pellet and supernatant following treatment, quantitated by ELISA (R&D systems).
Mitochondria were isolated from wt FL5.12 cells and FL5.12-BCL-2 cells in the presence of IL-3, and from FL5.12-BCL-2 cells following 24 hours of IL-3 deprivation. […] Mitochondrial pellets were subjected to chemical crosslinking as previously described (Letai et al., 2002).

[3] = tested on: SU-DHL4, SU-DHL6, SU-DHL8, SU-DHL 10; test: Lymphoma cell line sensitivity to agents; type: cell-based; details: four lymphoma cell lines compared
Protocol: Only cells that are dependent on BCL-2 for survival are predicted to respond to BCL-2 antagonists like ABT-737. […] To test this, cells were treated with vincristine.

[4] = tested on: mouse liver mitochondria; test: Cytochrome c release from mouse liver mitochondria; type: biochemical; details: no tBID, also at 10-fold higher concentrations
Protocol: as §2, with “systems). When results of multiple experiments were averaged, results from solvent-only (DMSO) treatments values were subtracted from each, so that 0 release reflects that observed in solvent-only treatments.” for “systems).”
To test if selective binding corresponded to ability of individual BH3 domains to selectively antagonize antiapoptotic function, a purified mitochondrial system was constructed in which the critical apoptosis decision making molecular machinery was reconstituted. […] The multidomain proapoptotic function was provided by the BAK which resides in mouse liver Mitochondria; mouse liver mitochondria contain no detectable BAX protein (Letai et al., 2002). The dominant antiapoptotic function was provided by one of the five different recombinant antiapoptotic proteins used in the binding assays. BH3 peptides provided the sensitizer function.
Furthermore, when the panel of sensitizer BH3 peptides was tested in the presence of the antiapoptotic protein BCL-XL, there was still no cytochrome c release, formally ruling out the possibility that the BH3 peptides were somehow directly converting antiapoptotic proteins to a proapoptotic function (FIG. 2). To induce MOMP and cytochrome c release, there appears to be an absolute requirement for an activator function, here provided by the tBID protein.

[5] = tested on: leukemic mitochondria; test: Cytochrome c release from BCL-2 dependent leukemia mitochondria; type: biochemical, mouse
Protocol: as §2, with “systems). When results of multiple experiments were averaged, results from solvent-only (DMSO) treatments values were subtracted from each, so that 0 release reflects that observed in solvent-only treatments.” for “systems).”
Leukemia prone mice were generated as previously described (Letai, 2004). Mouse experimental protocols conform to the relevant regulatory standards and were approved by the Dana-Farber Cancer Institute Animal Care and Use Committee.
Previous results have described a mouse acute lymphocytic leukemia model in which c-myc is constitutively expressed and human BCL-2 is repressibly expressed. In this model, when BCL-2 transgene expression is eliminated by administration of doxycycline, the leukemic cells undergo apoptosis, resulting in rapid resolution of the leukemia (Letai, 2004). This provides an ideal in vivo model of a BCL-2 dependent cancer. It was hypothesized that dependence on BCL-2 was due to a similar mechanism to that of the IL-3 deprived FL5.12-BCL-2 cells—that is, a death signal was being initiated and carried by an activator BH3 molecule, but BCL-2 was binding it and preventing its interaction with multidomain proapoptotic proteins.
Mitochondria were isolated from leukemia cells and exposed to sensitizer BH3 peptides. Subsequently, cytochrome c release was measured. As an internal control, mitochondria were isolated from liver from the leukemic mice in parallel (FIG. 8A).

[6] = tested on: SU-DHL6; test: BH3 profiling, cytochrome c release from lymphoma mitochondria; type: biochemical; details: SU-DHL 6
Description: as §1
SU-DHL4 and SU-DHL6 a “primed” phenotype, based on the sensitivity to sensitizer BH3 peptides. […] SU-DHL-10 responded poorly to both sensitizer and activator peptides, indicating the loss of the effector arm.

[7] = tested on: CLL mitochondria; test: Cytochrome c release from CLL mitochondria; type: biochemical, human; details: peptides or compounds 100 μM
Protocol: Alternatively, mitochondria were purified from freshly isolated CLL cells and cell lines by mechanical disruption followed by differential centrifugation, as previously described (Letai et al., 2002). Mitochondrial suspensions were made at 0.5 mg protein/ml, except for the case of ABT-737 and negative control enantiomer treatments, where 0.1 mg/ml was used. Release of cytochrome c was determined by a comparison of cytochrome c in the pellet and supernatant quantitated by ELISA (R&D systems).
CLL mitochondria were incubated with BH3 peptides as well as ABT-737 and negative control enantiomer (FIG. 14). […] This pattern is diagnostic of mitochondrial BCL-2 dependence. […] Since the BH3 peptides in the sensitizer panel lack the ability to directly activate BAX and BAK, these experiments also implicated the presence of an activator molecule constitutively sequestered by BCL-2 in CLL.

[8] = FL5.12-BCL-2 cells deprived of IL-3 for 24 hours, peptides 10 μM

| Structure (SMILES) | mitochondrial sensitivity to BH3 peptide [1] | cytochrome c release [2, 8] | cytochrome c release ([2]; FL5.12-BCL-2 cells with IL-3, peptides 10 μM) | cytochrome c release ([2]; wt FL5.12 cells with IL-3, peptides 10 uM) | cell sensitivity to the agent [3] | cytochrome c release by peptide alone [4] | cytochrome c release [5] | mitochondrial sensitivity to BH3 peptide [6] | cytochrome c release [7] |
| --- | --- | --- | --- | --- | --- | --- | --- | --- | --- |
| CC[C@H](C)[C@H](NC(=O)[C@H](CC(N)=O)NC(=O)[C@H](CCCNC(=N)N)NC(=O)[C@@H](NC(=O)[C@@H](NC(=O)[C@H](CC(=O)O)NC(=O)[C@H](CCC(=O)O)NC(=O)CCCCCNC(=S)Nc1ccc2c(c1)C(=O)OC21c2ccc(O)cc2Oc2cc(O)ccc21)[C@@H](C)CC)[C@@H](C)CC)C(=O)N[C@@H](C)C(=O)N[C@@H](CCCNC(=N)N)C(=O)N[C@@H](Cc1c[nH]cn1)C(=O)N[C@@H](CC(C)C)C(=O)N[C@@H](C)C(=O)N[C@@H](CCC(N)=O)C(=O)N[C@H](C(=O)NCC(=O)N[C@@H](CC(=O)O)C(=O)N[C@@H](CO)C(=O)N[C@@H](CCSC)C(=O)N[C@@H](CC(=O)O)C(=O)N[C@@H](CCCNC(=N)N)C(=O)O)C(C)C [BID] | responding strongly | sensitivity to 10 μM BID BH3 is restored | BCL-2 overexpression inhibits release | potently induce cytochrome c release |  |  |  |  |  |
| CC[C@]1(O)C[C@H]2CN(CCc3c([nH]c4ccccc34)[C@@](C(=O)OC)(c3cc4c(cc3OC)N(C=O)[C@H]3[C@@](O)(C(=O)OC)[C@H](OC(C)=O)[C@]5(CC)C=CCN6CC[C@]43[C@@H]65)C2)C1 [vincristine] |  |  |  |  | SU-DHL4 and SU-DHL6 were the most sensitive cell lines |  |  |  |  |
| CC[C@H](C)[C@H](NC(=O)[C@H](CS)NC(=O)[C@H](C)NC(=O)[C@H](CC(C)C)NC(=O)[C@H](CCCNC(=N)N)NC(=O)[C@H](CC(C)C)NC(=O)[C@H](C)NC(=O)[C@H](CC(C)C)NC(=O)[C@H](C)NC(=O)[C@H](CC(=O)O)NC(=O)[C@H](CO)NC(=O)CNC(=O)[C@H](CCC(=O)O)NC(=O)[C@H](CCSC)NC(=O)CCCCCNC(=S)Nc1ccc2c(c1)C(=O)OC21c2ccc(O)cc2Oc2cc(O)ccc21)C(=O)NCC(=O)N[C@@H](CC(=O)O)C(=O)N[C@@H](CCC(=O)O)C(=O)N[C@@H](CCSC)C(=O)N[C@@H](CC(=O)O)C(=O)N[C@H](C(=O)O)C(C)C [BIK] |  | does not induce cytochrome c release |  |  |  | none of the sensitizer BH3 peptides by themselves can induce cytochrome c release significantly above background | capable of inducing near total cytochrome c release |  |  |
| CC[C@H](C)[C@H](NC(=O)[C@H](CCC(=O)O)NC(=O)[C@H](CCCNC(=N)N)NC(=O)[C@H](C)NC(=O)[C@H](Cc1c[nH]c2ccccc12)NC(=O)[C@H](CCC(N)=O)NC(=O)[C@H](CCC(=O)O)NC(=O)CCCCCNC(=S)Nc1ccc2c(c1)C(=O)OC21c2ccc(O)cc2Oc2cc(O)ccc21)C(=O)NCC(=O)N[C@@H](C)C(=O)N[C@@H](CCC(N)=O)C(=O)N[C@@H](CC(C)C)C(=O)N[C@@H](CCCNC(=N)N)C(=O)N[C@@H](CCCNC(=N)N)C(=O)N[C@@H](CCSC)C(=O)N[C@@H](C)C(=O)N[C@@H](CC(=O)O)C(=O)N[C@@H](CC(=O)O)C(=O)N[C@@H](CC(C)C)C(=O)N[C@@H](CC(N)=O)C(=O)N[C@@H](C)C(=O)O [PUMA] | limited response |  |  |  |  | none of the sensitizer BH3 peptides by themselves can induce cytochrome c release significantly above background | capable of inducing near total cytochrome c release | strong | induce cytochrome c release |
| CC[C@H](C)[C@H](NC(=O)[C@H](CC(C)C)NC(=O)[C@H](CCC(N)=O)NC(=O)[C@H](CC(C)C)NC(=O)[C@H](CCCCN)NC(=O)[C@H](CCCNC(=N)N)NC(=O)[C@H](C)NC(=O)[C@@H](NC(=O)[C@H](CCC(N)=O)NC(=O)[C@@H](NC(=O)[C@H](CCC(=O)O)NC(=O)[C@H](C)NC(=O)[C@H](CCC(N)=O)NC(=O)[C@H](Cc1c[nH]cn1)NC(=O)CCCCCNC(=S)Nc1ccc2c(c1)C(=O)OC21c2ccc(O)cc2Oc2cc(O)ccc21)C(C)C)[C@@H](C)CC)C(=O)N[C@@H](C)C(=O)N[C@@H](CC(=O)O)C(=O)N[C@@H](CCC(N)=O)C(=O)N[C@@H](Cc1ccccc1)C(=O)N[C@@H](Cc1c[nH]cn1)C(=O)N[C@@H](CCCNC(=N)N)C(=O)O [BMF] |  |  |  |  |  | none of the sensitizer BH3 peptides by themselves can induce cytochrome c release significantly above background | capable of inducing near total cytochrome c release | strong | induce cytochrome c release |
